From US8034810B2, “Arylsulfonamido-substituted hydroxamic acid derivatives” (Novartis AG, priority 1999, dated 2011)
Counter-ions that a name gives are not always drawn.

The molecules below were run against T1, MMP2 (gelatinase A) (Homo sapiens, UniProt P08253) (assay: In vitro inhibition of MMP2 (gelatinase A), fluorogenic peptide substrate). Settings: APMA-activated recombinant human proMMP2; substrate 10 μM; 37° C.
T1 construct: made in house; host or cells: Tn insect cells, baculovirus (pFAST BAC 1)
T1 sequence (P08253 110-660): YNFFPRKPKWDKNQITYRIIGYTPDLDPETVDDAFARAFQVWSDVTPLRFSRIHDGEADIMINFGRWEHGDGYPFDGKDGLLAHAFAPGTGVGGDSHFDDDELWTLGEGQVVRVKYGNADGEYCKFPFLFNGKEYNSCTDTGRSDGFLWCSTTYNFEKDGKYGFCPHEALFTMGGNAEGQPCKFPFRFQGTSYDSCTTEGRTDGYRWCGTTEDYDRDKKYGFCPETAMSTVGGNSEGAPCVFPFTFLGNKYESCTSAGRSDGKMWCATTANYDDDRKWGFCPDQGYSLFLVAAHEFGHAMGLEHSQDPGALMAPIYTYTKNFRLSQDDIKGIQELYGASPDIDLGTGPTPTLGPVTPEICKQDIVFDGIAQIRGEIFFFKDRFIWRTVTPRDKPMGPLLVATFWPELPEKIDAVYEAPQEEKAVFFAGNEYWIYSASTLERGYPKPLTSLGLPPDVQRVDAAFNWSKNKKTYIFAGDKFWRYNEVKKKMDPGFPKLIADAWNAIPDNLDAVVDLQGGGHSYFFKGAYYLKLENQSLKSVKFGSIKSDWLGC
Assay type: biochemical
Description: The inhibitory activities of compounds of formula I on MT1-MMP, MMP1 (collagenase 1) and MMP2 (gelatinase A) can be determined as follows:
Stock solutions of substrate (MCA-Pro-Leu-Gly-Leu-Dpa-Ala-Arg-NH2, Knight, C. G., Willenbrock, F., Murphy, G., A novel coumarin-labelled peptide for sensitive continuous assays of the matrix metalloproteinases, FEBS lett., 296, 263-266, (1992)), are prepared in 100% DMSO at a concentration 1.0 mM. Stock solutions of inhibitors are prepared in 100% DMSO. The inhibitor is diluted into the assays from a solution in 100% DMSO, and controls substitute an equal volume of DMSO so that the final DMSO concentration from inhibitor and substrate dilutions in all assays is 6.0%. Assays are performed in assay buffer (150 mM NaCl, 10 mM CaCl2, 50 mM Tris-Cl pH7.5, 0.05% Brij-35) containing 6.0% DMSO once the substrate and inhibitor are diluted into it. The substrate concentration used in the assays is 10 μM. The test is carried out at 37° C. The fluorescence changes are monitored using an excitation wavelength of 320 nm and an emission wavelength of […]. The reaction mixture is added in duplicate to appropriate wells of a 96 well microfluor plate. The reaction mixture is preincubated with the inhibitor for 30 min, the reaction is started by the addition of MMP enzyme and the fluorescence intensity is measured for 10 min. A time point that is on a linear part of the curve is chosen to determine the activity. The inhibition results are expressed as the inhibitor concentrations that produced 50% inhibition (IC50) of the activity in the control (non-inhibited) reaction. In this test, the compounds of the formula I and their pharmacologically acceptable salts have an inhibiting concentration IC50 [μmol/litre] of 0.0001 and 0.030, usually of 0.0002 to 0.010, for MMP2 and an inhibiting concentration IC50 [μmol/litre] of 0.0005 and 0.125, usually of 0.001 to 0.05, for MT1-MMP.
Plasmid: The cDNA for human proMMP2 is supplied by Prof. Motoharu Seiki, Institute of Medical Science, The University of Tokyo. The cDNA encoding a full length on human pro-MMP2 is generated by PCR of cDNA derived from RNA isolated from human HT1080 cells (ATCC# CCL121). The primers to generate this cDNA are GAATTCGATGGAGGCG CTAATGGCCCGG and […] corresponding to full length human pro-MMP2 of the reported cDNA sequence, GenBank accession number J03210. The resulting 2.0 Kb PCR fragment is cloned into EcoR1/Xho 1 site of pFAST BAC 1 vector (pBAC-MMP2) (Collier, I. E., Wilhelm, S. M., Eisen, A. Z., Manner, B. L., Grant, G. A., Seltzer, J. L., Kronberger, A., He, C., Bauer, E. A. and Goldberg, G. I. J. Biol. Chem., 263:6579-6587, 1988).
Expression and Purification: For baculovirus expression of r-proMMP2, pBAC-MMP2 is transformed into DH10BAC competent cells to produce a r-proMMP2 bacmid DNA. The recombinant bacmid DNA is transfected into cultured insect cells (Tn cells) with Cellfectin reagent (Gibco BRL). Recombinant baculovirus are plaque purified to homogeneity and are used to generate high titer stocks of the recombinant baculovirus. Expression of r-proMMP2 is confirmed by gelatin zymography.
Culture fluids of Tn cells infected with baculovirus are centrifuged and filtrated through a […] pore size filter to remove cell debris. The recombinant proMMP2 as absorbed to gelatin Sepharose 4B (Pharmacia Biotech) in equilibration buffer of in 25 mM Tris-HCl (pH 7.5), 1 M NaCl, 10 mM CaCl2, 0.05% Briji 35 at 4° C. After washing the beads with equilibration buffer, r-proMMP2 as eluted with equilibration buffer containing 10% DMSO. The enzyme are stored at 4° C. until activation. For assay, the purified proMMP2 is activated with 1 mM APMA for 1 hr at 37° C.
For `C#CCOc1ccc(S(=O)(=O)N(CC(=O)NO)Cc2ccc(OC)cc2)cc1` [Example 75, [(4-methoxy-benzyl)-[4-prop-2-ynyloxy-benzenesulfonyl]-amino]-N-hydroxy-acetamide], the IC50 was 1 nM.
With `O=C(CN(Cc1ccc(-n2cncn2)cc1)S(=O)(=O)c1ccc(OCc2ccoc2)cc1)NO` [Example 82c] the IC50 was 5.3 nM.
In the case of `C=CCCOc1ccc(S(=O)(=O)N(CC(=O)NO)Cc2ccc(-n3ccnc3)cc2)cc1` [Example 80, 2-[(4-But-3-enyloxy-benzenesulfonyl)-(4-imidazol-1-yl-benzyl)-amino]-N-hydroxy-acetamide-hydrochloride], the IC50 is reported as 8 nM.
In the case of `C=CCCOc1ccc(S(=O)(=O)N(CC(=O)NO)Cc2cccc(F)n2)cc1` [Example 83a, 2-([4-But-3-enyloxy-benzenesulfonyl]-(6-fluoro-pyridine-2-yl)methyl-amino)-N-hydroxyacetamide], the IC50 is reported as 2.1 nM.
For `C=CCCOc1ccc(S(=O)(=O)N(CC(=O)NO)Cc2ccc(-n3cncn3)cc2)cc1` [Example 79, 2-[(4-but-3-enyloxy-benzenesulfonyl)-(4-[1,2,4]triazol-1-yl-benzyl)-amino]-N-hydroxy-acetamide-hydrochloride salt], the IC50 was 0.2 nM.
Molecule `COc1ccc(CN(CC(=O)NO)S(=O)(=O)c2ccc(OCCCCl)cc2)cc1` [Example 68, 2-{[4-(3-chloro-propoxy)-benzenesulfonyl]-(4-methoxy-benzyl)amino}-N-hydroxy-acetamide] has an IC50 of 0.7 nM.
`C=CCCOc1ccc(S(=O)(=O)N(CC(=O)NO)Cc2ccc(N3CCCC3)cc2)cc1` [Example 84a, 2-[(4-But-3-enyloxy-benzenesulfonyl)-(4-(pyrrolidin-1-yl)-benzyl)-amino]-N-hydroxyacetamide-hydrochloride] gave an IC50 of 14.7 nM.
In the case of “2-[(Cyclopropylmethoxy-benzenesulfonyl)-(4-[1,2,4]triazol-1-yl-benzyl)-amino]-N-hydroxyacetamide-hydrochloride salt [Example 82b]”, the IC50 is reported as 10.4 nM.
`O=C(CN(Cc1ccc(-n2cncn2)cc1)S(=O)(=O)c1ccc(OCCC2CC2)cc1)NO` [Example 82a] showed an IC50 of 40.2 nM.
`C=CCCOc1ccc(S(=O)(=O)N(CC(=O)NO)Cc2ccc(N3CCOCC3)cc2)cc1` [Example 81, 2-[(4-But-3-enyloxy-benzenesulfonyl)-(4-morpholin-4-yl-benzyl)-amino]-N-hydroxy-acetamide-hydrochloride] gave an IC50 of 10.4 nM.
